The record followed here is patent publication US20260001876A1, “Compounds and Their Use as PDE4 Activators” (Mironid Limited, priority 2022, published 2026).

One test has as its system m-IMCD3 cells. Kind of test: Inhibition of PGE2-stimulated in vitro cyst formation in m-IMCD3 cells (3D culture). As to conditions: Mus musculus, mIMCD3, 144 h, mean cyst area, 100% for (DMSO + PGE2) and 0% for DMSO control, 6 days of culture; for activity at 10 µM: read-out: % Cyst area* after incubation with 10 μM test compound; for activity at 3 µM: read-out: % Cyst area* after incubation with 3 μM test compound. The class given is cell-based. The protocol: (§1) HEK 293 and MDCK cells (Public Health England, Cell Culture Collections) were maintained in Dulbecco's Modified Eagle's Medium (DMEM) supplemented with 10% (v/v) fetal bovine serum (FBS) (Seralab), 2 mM L-glutamine and 100 U/mL penicillin streptomycin cocktail (ThermoFisher); termed complete media. Clonal HEK 293 cell lines were maintained in complete media supplemented with 0.6 mg/ml G418 (Enzo Life Sciences). Mouse inner medullary collecting duct (m-IMCD3) cells [American Type Culture Collection (ATCC)] were maintained in media consisting of DMEM/Hams F-12 50/50 Mix (DMEM F12; Corning) supplemented with penicillin streptomycin cocktail (100 U/mL) and FBS (10% v/v) (DMEM F12-10% FBS).
Experiment 3: Inhibition of In Vitro Cyst Formation in m-IMCD3 Cells Treated with PDE4 Long Form Activators
The mouse Inner Medullary Collecting Duct cell line (m-IMCD3) spontaneously forms cystic spheroids in 3D culture with a Type 1 collagen/Matrigel extracellular matrix. This process can be stimulated with agents which raise intracellular cAMP and is used as an in vitro model for the formation of cystic structures in the kidneys of patients with ADPKD.
Rat Collagen I (Fisher Scientific) is prepared on ice by neutralising with 1M NaOH and diluting with a 2× volume of DMEM/F12+10% FBS. This is mixed 1:1.1 with ice cold Matrigel (Corning) for coating plates (coating mix), and 1:0.93 with Matrigel for cell plating (plating mix).
The assay is conducted in the wells of a 96-well plate culture dish using a total volume of 130 μL of collagen/Matrigel/DMEM F12-10% FBS suspension in growth media for each matrix plug per individual well. Initially, 30 μL of collagen/Matrigel/DMEM F12-10% FBS (coating mix) is added into the well of a 96 well plate and the collagen is set to a gel by incubating at 37° C. for at least 15 minutes. A second layer of 100 μL collagen/Matrigel suspension (plating mix) containing m-IMCD3 cells (2.75×10^6 m-IMCD3 cells per 96-well plate) is layered over the coating mix and the collagen/Matrigel/cell mix again set to a gel by incubating at 37° C. Cell cultures are maintained at 37° C. in an atmosphere of 5% CO2, 95% air.
Between 18 and 24 h after plating, test compound(s) as DMSO stock solutions [0.1% (v/v) final DMSO concentration] and PGE2 (100 nM final concentration) in DMEM F12-10% FBS are added in quadruplicate wells per condition. Media, together with the test compound and PGE2 are replenished after 2 or 3 days. After 6 days of culture z stack images of the wells are captured using the Nikon Eclipse Ti2-E microscope. Nikon General Analysis software is used to measure the following parameters in each well: the mean cyst area, the number of cysts, and the total cyst area.
PDE4 long form activators inhibited in vitro cyst formation in m-IMCD3 cells. Data are shown in Table 4 as mean cyst area (%), compared to 100% for (DMSO+PGE2) and 0% for DMSO control.

Test [1] has as its system m-IMCD3 cells expressing PDE4 long forms. The experiment in a line: cAMP levels in assay media of PGE2-stimulated m-IMCD3 3D cell culture. Type of test: cell-based. Conditions: Mus musculus, mIMCD3, compared to 100% for (DMSO + PGE2), read-out: cAMP level (% of PGE2-stimulated); for activity at 3 µM: 3 μM test compound; for activity at 10 µM: 10 μM test compound. The protocol: as §1
Experiment 2: Reduction of CAMP Levels in m-IMCD3 Cell Culture Treated with PDE4 Long Form Activators
Activation of intracellular PDE4 long forms leads to a reduction of both intracellular CAMP and externalised cAMP (Omar et al., PNAS 116:13320-13329, 2019). This reduction may be measured in the cell culture media supernatant of 3D cystic cell cultures, such as in the m-IMCD3 cell cyst suppression assay described in Experiment 3.
Following the completion of the m-IMCD3 cell cyst suppression assay (Experiment 3), the CAMP levels in the assay media from individual or pooled assay wells was measured using a CAMP ELISA kit (Enzo Life Sciences) or a LANCE Ultra CAMP kit (PerkinElmer) according to the manufacturer's instructions.
Treatment with PDE4 long form activators reduced CAMP levels in PGE2-stimulated m-IMCD3 cell culture.
(cAMP levels reflect the balance of adenylyl cyclase and phosphodiesterase activity.)

As for `O=C(CC1CCCC1)N1CCc2nc(N3CCN4CCC[C@@H]4C3)ccc2C1` [Example 112, (R)-2-cyclopentyl-1-(2-(hexahydropyrrolo[1,2-a]pyrazin-2 (1H)-yl)-7,8-dihydro-1,6-naphthyridin-6(5H)-yl)ethan-1-one], the activity at 10 µM in the test with m-IMCD3 cells is -6%. For the same compound, the activity at 3 µM in test [1] worked out at 54%.

With `O=C(CC1CCCC1)N1CCc2nc(N3C4CCCC3CNC4)ccc2C1` [Example 151, 1-(2-(3,9-diazabicyclo[3.3.1]nonan-9-yl)-7,8-dihydro-1,6-naphthyridin-6(5H)-yl)-2-cyclopentylethan-1-one], the activity at 3 µM is -8% in the test with m-IMCD3 cells and 51% in test [1].

As for `CN1CC2CCC(C1)N2c1ccc2c(n1)CN(C(=O)NC1CCC(F)(F)CC1)C2` [Example 91, N-(4,4-difluorocyclohexyl)-2-(3-methyl-3,8-diazabicyclo[3.2.1]octan-8-yl)-5,7-dihydro-6H-pyrrolo[3,4-b]pyridine-6-carboxamide], in the test on m-IMCD3 cells, the activity at 10 µM is -5%. Further, in test [1], the activity at 3 µM worked out at 31%.

As to `CCN1CC2CCC(C1)N2c1ccc2c(n1)CCN(S(=O)(=O)Cc1ccccc1)C2` [Example 163, 6-(benzylsulfonyl)-2-(3-ethyl-3,8-diazabicyclo[3.2.1]octan-8-yl)-5,6,7,8-tetrahydro-1,6-naphthyridine], the activity at 3 µM in the test with m-IMCD3 cells was -1%; in test [1], 39%.

As to `O=C(CC1CCC(F)(F)CC1)N1CCc2nc(N3C4CCC3CNC4)ccc2C1` [Example 40, 1-(2-(3,8-diazabicyclo[3.2.1]octan-8-yl)-7,8-dihydro-1,6-naphthyridin-6(5H)-yl)-2-(4,4-difluorocyclohexyl)ethan-1-one], the figures for the activity at 10 µM (in the test on m-IMCD3 cells; in test [1]) were 0% and 43%, respectively.

Consider `O=C(CC1CCCC1)N1CCc2nc(N3C[C@H]4C[C@@H]3CN4)ccc2C1` [Example 156, 1-(2-((1R,4R)-2,5-diazabicyclo[2.2.1]heptan-2-yl)-7,8-dihydro-1,6-naphthyridin-6(5H)-yl)-2-cyclopentylethan-1-one], for which the values for the activity at 3 µM (with m-IMCD3 cells; in test [1]) were 4% and 49%, respectively.

Take `Cc1ccccc1C(=O)N1CCc2nc(N3C4CCC3CNC4)ccc2C1` [Example 122, (2-(3,8-diazabicyclo[3.2.1]octan-8-yl)-7,8-dihydro-1,6-naphthyridin-6(5H)-yl)(o-tolyl)methanone]: the activity at 3 µM is -1% with m-IMCD3 cells and 66% in test [1].

As for `COc1ccccc1C(=O)N1CCc2nc(N3C4CCC3CNC4)ccc2C1` [Example 121, (2-(3,8-diazabicyclo[3.2.1]octan-8-yl)-7,8-dihydro-1,6-naphthyridin-6(5H)-yl)(2-methoxyphenyl)methanone], the activity at 3 µM with m-IMCD3 cells worked out at 8%; in test [1], 44%.

Take `O=C(Cc1ccccc1)N1CCc2nc(N3CCNCC3)ncc2C1` [Example 134, 2-phenyl-1-(2-(piperazin-1-yl)-7,8-dihydropyrido[4,3-d]pyrimidin-6(5H)-yl)ethan-1-one]: the activity at 3 µM in the test with m-IMCD3 cells is 7%; in test [1], 55%.

For the compound `O=C(c1ccc(F)cc1)N1CCc2nc(N3CCNCC3)ncc2C1` [Example 147, (4-fluorophenyl)(2-(piperazin-1-yl)-7,8-dihydropyrido[4,3-d]pyrimidin-6(5H)-yl)methanone], the activity at 3 µM with m-IMCD3 cells was 4%; in test [1], 40%.

In the case of `O=S(=O)(Cc1ccc(F)cc1)N1CCc2nc(N3C4CCC3CNC4)ccc2C1` [Example 158, 2-(3,8-diazabicyclo[3.2.1]octan-8-yl)-6-((4-fluorobenzyl)sulfonyl)-5,6,7,8-tetrahydro-1,6-naphthyridine], the values for the activity at 3 µM (with m-IMCD3 cells; in test [1]) were 5% and 46%, respectively.

As for `O=C(CC1CCCC1)N1CCc2nc(C3CCNCC3)ccc2C1` [Example 114, 2-cyclopentyl-1-(2-(piperidin-4-yl)-7,8-dihydro-1,6-naphthyridin-6(5H)-yl)ethan-1-one], the activity at 10 µM in the test on m-IMCD3 cells was -2%. The activity at 3 µM in test [1] is 47%.

As to `O=S(=O)(Cc1ccccc1)N1CCc2nc(N3C4CCC3CNC4)ccc2C1` [Example 162, 6-(benzylsulfonyl)-2-(3,8-diazabicyclo[3.2.1]octan-8-yl)-5,6,7,8-tetrahydro-1,6-naphthyridine], the activity at 3 µM in the test with m-IMCD3 cells is -3%; in test [1], 38%.

Consider `O=S(=O)(Cc1ccc(F)cc1)N1CCc2nc(N3CCNCC3)ccc2C1` [Example 160, 6-((4-fluorobenzyl)sulfonyl)-2-(piperazin-1-yl)-5,6,7,8-tetrahydro-1,6-naphthyridine], for which the activity at 3 µM with m-IMCD3 cells is -4%; in test [1], 35%.

On to `CC1(CC(=O)N2Cc3ccc(N4C5CCC4CNC5)nc3C2)CCCC1` [Example 129, 1-(2-(3,8-diazabicyclo[3.2.1]octan-8-yl)-5,7-dihydro-6H-pyrrolo[3,4-b]pyridin-6-yl)-2-(1-methylcyclopentyl)ethan-1-one], for which the activity at 10 µM in the test on m-IMCD3 cells is 2%. Further, in test [1], the activity at 3 µM came to 44%.

Take `O=C(CC1CCC(F)(F)CC1)N1CCc2nc(N3CCNCC3)ccc2C1` [Example 111, 2-(4,4-difluorocyclohexyl)-1-(2-(piperazin-1-yl)-7,8-dihydro-1,6-naphthyridin-6(5H)-yl)ethan-1-one]: the activity at 10 µM was -3% in the test with m-IMCD3 cells and 38% in test [1].

For the compound `O=C(CC1CCCC1)N1CCc2nc(N3C[C@@H]4C[C@H]3CN4)ccc2C1` [Example 155, 1-(2-((1S,4S)-2,5-diazabicyclo[2.2.1]heptan-2-yl)-7,8-dihydro-1,6-naphthyridin-6(5H)-yl)-2-cyclopentylethan-1-one], the activity at 3 µM in test [1] came to 63%.

On to `O=C(COc1ccccc1)N1CCc2nc(N3C4CCC3CNC4)ccc2C1` [Example 41, 1-(2-(3,8-diazabicyclo[3.2.1]octan-8-yl)-7,8-dihydro-1,6-naphthyridin-6(5H)-yl)-2-phenoxyethan-1-one], for which, in the test with m-IMCD3 cells, the activity at 10 µM came out at 4%.

On to `O=C(C1CCCC1)N1CCc2nc(N3C4CCC3CNC4)ccc2C1` [Example 47, (2-(3,8-diazabicyclo[3.2.1]octan-8-yl)-7,8-dihydro-1,6-naphthyridin-6(5H)-yl)(cyclopentyl)methanone], for which the activity at 10 µM with m-IMCD3 cells was 5%.

Turning to `O=C(OC1CCCC1)N1CCc2nc(N3C4CCC3CNC4)ccc2C1` [Example 125, cyclopentyl 2-(3,8-diazabicyclo[3.2.1]octan-8-yl)-7,8-dihydro-1,6-naphthyridine-6(5H)-carboxylate], in the test with m-IMCD3 cells, the activity at 3 µM is -3%.

In the case of `O=C(N[C@H]1CCOc2ccccc21)N1CCc2nc(N3CCNCC3)ccc2C1` [Example 168, (S)—N-(chroman-4-yl)-2-(piperazin-1-yl)-7,8-dihydro-1,6-naphthyridine-6(5H)-carboxamide], the activity at 3 µM in the test on m-IMCD3 cells was 4%.

In the case of `CCN1CC2CCC(C1)N2c1ccc2c(n1)CCN(C(=O)COc1ccc(F)cc1)C2` [Example 171, 1-(2-(3-ethyl-3,8-diazabicyclo[3.2.1]octan-8-yl)-7,8-dihydro-1,6-naphthyridin-6(5H)-yl)-2-(4-fluorophenoxy)ethan-1-one], the activity at 3 µM in the test on m-IMCD3 cells is 4%.
